{
  "source": "BindingDB's records for doi:10.7270/Q2Z036M0",
  "about": "(Broad Institute, 2010)",
  "data": [
    {"molecular_target": "T1, S-ribosylhomocysteine lyase (Vibrio harveyi, UniProt B0LUE4)", "T1 sequence (B0LUE4 whole entry)": "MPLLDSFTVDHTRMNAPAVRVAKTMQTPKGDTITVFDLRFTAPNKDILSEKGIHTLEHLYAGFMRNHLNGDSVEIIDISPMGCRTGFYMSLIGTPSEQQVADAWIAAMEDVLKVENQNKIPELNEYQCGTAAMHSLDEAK", "test": "AI-2 quorum sensing modulators, luminescence, confirmation, dose retest, Vibrio harveyi (AID 2724)", "units": {"EC50": "µM"}, "values": [
      {"smiles": "CCCc1ccc(S(=O)(=O)N(C)S(=O)(=O)c2ccc(F)cc2)cc1", "note": "[N-(4-fluorophenyl)sulfonyl-N-methyl-4-propylbenzenesulfonamide]", "EC50": 1.62},
      {"smiles": "COc1cc(NC(=O)CN2C(=O)NC(c3ccccc3)(c3ccccc3)C2=O)cc(OC)c1", "note": "[MLS001176525]", "EC50": 1.57},
      {"smiles": "Cc1cccc(NS(=O)(=O)c2ccc(Oc3ccccc3)cc2)n1", "note": "[SMR000071466]", "EC50": 2.56},
      {"smiles": "C=Cn1c(C(=O)O)ccc1-c1ccc(CC)cc1", "EC50": 2.07},
      {"smiles": "CCc1ccc(S(=O)(=O)Nc2ccc(Br)cn2)cc1", "note": "[MLS001211346]", "EC50": 3.64},
      {"smiles": "Cn1cnc(S(=O)(=O)Nc2ccc(OC(F)(F)F)cc2)c1", "note": "[SMR000314513]", "EC50": 4.39},
      {"smiles": "CN(C)S(=O)(=O)c1ccc(NC(=S)NC(=O)Cc2ccccc2)cc1", "note": "[N-[[4-(dimethylsulfamoyl)phenyl]carbamothioyl]-2-phenyl-ethanamide]", "EC50": "> 160"}
    ]}
  ]
}
